For 10 compounds, EC50 results are on record in BindingDB's records for doi:10.1074/jbc.M114.573162 (German Institute of Human Nutrition Potsdam-Rehbruecke, 2014).

Molecules are shown by their SMILES.

The target of this experiment is T1, Olfactory receptor class A-like protein 1 (Zebrafish, UniProt A0A0R4IM31).
T1 sequence (A0A0R4IM31 whole entry): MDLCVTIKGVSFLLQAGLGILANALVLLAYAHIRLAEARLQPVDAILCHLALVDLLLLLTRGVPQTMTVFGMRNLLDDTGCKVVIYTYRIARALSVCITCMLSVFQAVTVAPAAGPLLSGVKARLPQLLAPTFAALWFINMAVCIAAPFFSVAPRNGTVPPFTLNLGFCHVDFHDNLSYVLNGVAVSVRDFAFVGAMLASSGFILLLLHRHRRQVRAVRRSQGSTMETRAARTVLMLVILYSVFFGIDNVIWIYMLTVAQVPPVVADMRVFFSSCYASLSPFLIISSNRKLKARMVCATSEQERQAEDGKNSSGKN
Put plainly: Functional Calcium Imaging Assay. The conditions noted are these: pH 7.4. The method, then:
Briefly, HEK 293T cells stably expressing the G protein-chimera Gα16gust44 were seeded onto 96-well plates coated with 10 μg/ml of poly-D-lysine. The next day cells were transiently transfected with ORA1, ORA2, or human bitter taste receptor TAS2R16 constructs using Lipofectamine 2000 (Invitrogen). After 24 h the cells were washed with buffer C1 (130 mM NaCl, 5 mM KCl, 10 mM Hepes, pH 7.4, 2 mM CaCl2, 10 mM glucose), and loaded with the calcium-responsive dye Fluo-4 AM in the presence of 1 mM probenecide, an inhibitor of […]. To remove excessive fluorescence dye, cells were washed three times with buffer C1 and transferred into a fluorometric imaging plate reader (FLIPR, Molecular Devices) for measurement. Test substances were dissolved in C1 buffer and the changes in fluorescence after application of test substances were monitored.
Broadly, the EC50 is the midpoint of the concentration-response curve. For the compound `O=C(O)Cc1ccc(Cl)cc1` [2-(4-chlorophenyl)acetic acid], the EC50 stood at 16.6 µM.
`O=C(O)Cc1ccc(O)cc1` [2-(4-hydroxyphenyl)acetic acid]: the half-maximal effective concentration (EC50) was 1.9 µM.
With `O=C(O)Cc1ccc2c(c1)OCO2` [3,4-Methylenedioxyphenylacetic acid], the EC50 is 16 µM.
Next, `O=C(O)CCc1ccc(O)cc1` [3-(4-Hydroxyphenyl)-propionic acid]: 192 µM; `Nc1ccc(CC(=O)O)cc1` [4-Aminophenylacetic acid]: 91.7 µM.
Take `COc1ccc(CC(=O)O)cc1` [4-Methoxyphenylacetic acid]: the EC50 turned out to be 16.5 µM.
Turning to `Cc1ccc(C(=O)CC(=O)O)cc1` [4-Toloylacetic acid], the 50% effective concentration (EC50) was found to be 14.8 µM.
As to `CC(C(=O)O)c1ccc(O)cc1` (stereo not given) [Methyl-4-hydroxyphenylacetic acid], the concentration giving a half-maximal response (EC50) came to 221 µM.
Regarding `O=C(O)Cc1ccccc1` [Phenylacetate, XIX], the EC50 is 30.5 µM.
As for `O=C(O)Cc1ccc(O)c(O)c1` [SMR000326727], the half-maximal effective concentration (EC50) came to 22.8 µM.
